# Read-outs that look alike come from different tables or passages of the source.
# What was measured:
# [1] = physchem; details: water
# [2] = test system: LoVo/L cells; assay: In vitro cytotoxicity, LoVo/L; assay type: cell-based; details: Homo sapiens, 120 h, 5 days, 37° C., MTT, read-out: Antitumor (ID50) LoVo/L
# Method: (§1) ^b (ID50) inhibitory dose is the μM concentration of the
# (§2) In vitro cytotoxicity analysis was performed by using the following cell lines: L1210 (a murine leukemia), WI-L2 (a human B-lymphoblast), and LoVo/L (a human colon carcinoma). Cells were grown in RPMI 1640 medium supplemented with 10% fetal bovine serum, 20 mM HEPES, pH 7.4, and 2 mM glutamine. The cytotoxicity determinations were carried out in 96-well microtiter dishes containing a starting number of 5-10×10^3 cells per well and 0.1-100 μM concentrations of the compounds in triplicate wells. L1210 and WI-L2 were incubated with the compounds at 37° C. for 3 days, while Lovo/L was incubated for 5 days. After this time period, 25 μL of 4 mg/mL 3-(4,5-dimethylthiazol-2-yl)-2,5-diphenyltetrazolium bromide was added to each well and incubation was continued for 2 to 5 h. The formazan product was dissolved in isopropanol containing 0.04M HCl and the absorbance was determined with a microtiter plate reader. The absorbance was proportional to the number of cells.
# [3] = test system: L1210 cells; assay: In vitro cytotoxicity, L1210; assay type: cell-based, murine; details: Mus musculus, L1210, 72 h; 3 days, 37° C., MTT; read-out: Antitumor (ID50) L1210
# Method: as §1, §2
# [4] = test system: parainfluenza 3 (C243 strain); assay: In vitro antiviral activity, parainfluenza 3 (virus rating); assay type: cell-based; details: Vero cells; VR >1.0 marked, 0.5 to 0.9 moderate, <0.5 weak or no activity
# [5] = test system: herpes simplex virus type 2 (MS strain); assay: In vitro antiviral activity, herpes simplex virus type 2 (virus rating); assay type: cell-based; details: Vero cells; VR >1.0 marked, 0.5 to 0.9 moderate, <0.5 weak or no activity
# [6] = test system: WI-L2 cells; assay: In vitro cytotoxicity, WI-L2; assay type: cell-based; details: Homo sapiens, WIL2, 72 h; 3 days, 37° C., MTT; read-out: Antitumor (ID50) WI-L2
# Method: as §1, §2
# [7] = Lethal toxicity in treated mice; details: i.p., maximum soluble dosage
# [8] = test system: L1210; assay: In vivo antitumor activity against L1210 in BDF1 mice; details: qd; for T/C: day 1, at maximum soluble dosage
# Method: Compounds 8, 11, 14 and 17 were comparatively evaluated in vivo for efficacy against L1210 in BDF1 mice.
# Mice were inoculated i.p. with 1×10^6 L1210 cells 24 hr before qd, day 1, i.p. drug delivery. Drugs were solubilized in water and delivered at the rate of 0.01 ml/g mouse weight. Then control mice/drug were injected i.p. with equivalent volumes of a 0.9% solution of NaCl, the means and standard deviations reflecting the postinoculation life spans of these mice ranged from 6.30±0.48 to 6.60±0.97 days.
# [9] = test system: vaccinia virus (Elstree strain); assay type: cell-based; details: HeLa cells; VR >1.0 marked, 0.5 to 0.9 moderate, <0.5 weak or no activity
# [10] = delivered at 0.01 ml/g mouse weight
# [11] = test system: Herpes 2, parainfluenza 3 and Vaccinia; assay type: cell-based; details: tested in parallel with ARPP (8)
# [12] = test system: de novo purine biosynthesis in WI-L2 cells; assay: Inhibition of de novo purine biosynthesis ([14C]formate incorporation); assay type: cell-based, human; details: for activity at 50 µM: pre-incubation 8 h
# Method: Compounds of the invention were also tested for certain biochemical properties. Compounds of the invention were studied for their effect on de novo purine biosynthesis by observing inhibition of incorporation of [^14 C]formate into the acid-soluble fraction of WI-L2 cells (see Table 3). […] However, 8 and 14 (100 μM) were not cytotoxic to WI-L2 cells deficient in adenosine kinase activity.
# A normal lymphoblast phenotype B cell line, WI-L2 was used. The enzyme-deficient cell lines used in vitro are: HPRT-, a hypoxanthine-guanine phosphorbosyl transferase (EC 2.4.2.8)deficient line and AK-, an adenosine kinase (EC 2.7.1.20)deficient line. Cells were cultured in RPMI 1640 medium containing 5% dialyzed fetal bovine serum, 20 mM Na HEPES, pH 7.5 and 2 mM glutamine and maintained in log phase growth between 0.5 and 12×10^5 cells/mL. The mutant cell lines were periodically reselected by treatment with 6-thioguanine (HPRT-) or tubercidin (AK-).
# (§3) . Inhibition of de novo purine biosynthesis: WI-L2 or adenosine kinase-deficient cells were preincubated at 37° C. with drug for various time periods prior to labeling with [^14 C]formate. Enzyme Assays: Adenosine kinase inhibition studies were accomplished by the filter binding assay method. Inhibition studies were done at 37° C. with an assay mixture containing 4 mM ATP, 1.5 mM MgCl2, 5 or 10 μM [8-^14 C] adenosine (50 mCi/mmol) and 100 mM Tris-maleate, pH 5.5. To prevent the enzymatic breakdown of adenosine, erythro-9-(2-hydroxy-3-nonyl)adenine (EHNA) was added to the cell-free WI-L2 lysate to give 5 μM final assay concentration. The assay was started by the addition of protein. The amount of enzyme, time of assay and sampling volume were adjusted to give acceptable conversion of [8-^14 C] adenosine to [8-^14 C]AMP. Each DE-81 filter was spotted with a constant sampling volume and immersed in H 2 O (4 L) to terminate the reaction. Filters were washed three times with H2 O (4 L) and once with EtOH (100 mL). Dry filters were placed in scintillation vials and radioactivity was counted with 10 mL toluene-based scintillation cocktail.
# De novo purine biosynthesis was measured by the incorporation of ^14 C-formate into cellular purine nucleotides or excreted purines after pre-incubation with compound.
# [13] = test system: pyrimidine (CTP + UTP) and purine (ATP + GTP) nucleoside triphosphates; assay: 14C-bicarbonate incorporation into acid soluble pyrimidine and purine nucleoside triphosphates; assay type: cell-based
# From the text: Comparative effect of compounds on ^14 C-bicarbonate
# incorporation into acid soluble pyrimidine (PyrTP,
# CTP + UTP) and purine (PurTP, ATP + GTP) nucleoside
# [14] = Anomerization in aqueous solution (reverse-phase HPLC); assay type: physicochemical
# Method: This would be expected where the rate of anomerization is slow compared to the rate of deamination.
# The compounds of the invention are capable of crossing the cell membrane, and activated to the 5'-phosphate, thus causing the inhibition of the de novo purine biosynthesis.
# as §3, with “HPLC Analysis: Sample components were separated with an LKB model 2150 gradient HPLC system at ambient temperature on an Altex Ultrashere-ODS reverse phase column (Beckman) developed with a linear gradient of buffer A (10 mM KPO4 ', pH 3.83) to 20% component B (60% aqueous CH3 CN) at a combined flow rate of 1.0 mL/min over 15 min. Ultraviolet (UV) absorbance was monitored with an LKB model 2140 diode array detector. Inhibition of” for “. Inhibition of”
# [15] = read-out: PurTP, % control, 50.0 μM
# [16] = read-out: PydTP, % control, 50.0 μM
# [17] = Homo sapiens, WIL2, cell, read-out: de novo purine biosynthesis, % of control, cell, 50 μM
# [18] = Homo sapiens, WIL2, media (excreted purines), read-out: de novo purine biosynthesis, % of control, media, 50 μM
SMILES,solubility [1],IC50 [2],IC50 [3],Antiviral (VR) PI3 [4],Antiviral (VR) HSV2 [5],IC50 [6],T/C [8],Antiviral (VR) VV [9],Maximum watersoluble dosage [10],Antiviral activity in cell culture [11],"PurTP, 50.0 μM [13]","PyrTP, 50.0 μM [13]","CAA (carbamyl aspartate), 50.0 μM ([13]; zero = undetectable)","activity at 50 µM [13, 15]","activity at 50 µM [13, 16]","activity at 50 µM [12, 17]","activity at 50 µM [12, 18]",other results
"Nc1ncnc2c(N[C@H]3O[C@H](CO)[C@@H](O)[C@H]3O)ncnc12 [Compound 11, 4-Amino-8-(α-D-ribofuranosylamino)pyrimido[5,4-d]pyrimidine]",2200 µg/mL,1000 nM,380 nM,1.4 VR,0.2 VR,250 nM,138,1.0 VR,22 mg/kg/inj.,antiviral activity,,,,,,,,"lethal toxicity at maximum soluble dosage [7]: Neither drug was lethally toxic at its maximum soluble dosage; Postinoculation Lifespan (% T/C), 22 mg/kg/inj. ([8]; 22 mg/kg/inj. i.p., day 1): 138 % T/C"
"COc1ncnc2c(N[C@H]3O[C@H](CO)[C@@H](O)[C@H]3O)ncnc12 [Compound 17, 4-Methoxy-8-(α-D-ribofuranosylamino)pyrimido[5,4-d]pyrimidine]",3700 µg/mL,18700 nM,2900 nM,0.7 VR,0.1 VR,2500 nM,116,0.9 VR,37 mg/kg/inj.,antiviral activity,,,,,,,,"purine de novo assay, short term ([12]; 4 h): inactive; activity at 25 µM ([12]; Homo sapiens, WIL2, cell, 25 μM, pre-incubation 4 h, read-out: de novo purine biosynthesis, % of control, cell, 25 μM): 98.2%; purine de novo assay, longer incubation times ([12]; separate assays, longer incubation times): demonstrated the inhibitory activity; Postinoculation Lifespan (% T/C), 37 mg/kg/inj. ([8]; 37 mg/kg/inj. i.p., day 1): 116 % T/C"
"O=c1[nH]cnc2c(N[C@@H]3O[C@H](CO)[C@@H](O)[C@H]3O)ncnc12 [Compound 21, 8-(β-D-Ribofuranosylamino)pyrimido[5,4-d]pyrimidin-4(3H)-one]",,,,,,,,,,,54484 cpm/10^6 cells,15691 cpm/10^6 cells,0 cpm/10^6 cells,91.5%,72.3%,98.2%,106%,anomeric equilibration in solution [14]: equilibrated from pure β-anomer into a mixture of α- and β-anomers
"CN(C)c1ncnc2c(N[C@@H]3O[C@H](CO)[C@@H](O)[C@H]3O)ncnc12 [Compound 27, 4-Dimethylamino-8-(β-D-ribofuranosylamino)pyrimido[5,4-d]pyrimidine]",,,,,,,,,,,40581 cpm/10^6 cells,10177 cpm/10^6 cells,0 cpm/10^6 cells,68.2%,46.9%,50.7%,85.8%,
"Nc1nc(N[C@@H]2O[C@H](CO)[C@@H](O)[C@H]2O)c2ncnc(N)c2n1 [Compound 35, 4,6-Diamino-8-(β -D-ribofuranosylamino)pyrimido[5,4-d]pyrimidine]",,,,,,,,,,,58130 cpm/10^6 cells,15267 cpm/10^6 cells,0 cpm/10^6 cells,97.7%,70.4%,91.2%,89.8%,
"Nc1ncnc2c(N[C@@H]3O[C@H](CO)[C@@H](O)[C@H]3O)nc(Cl)nc12 [Compound 37, 4-Amino-6-chloro-8-(β-D-ribofuranosylamino)pyrimido[5,4-d]pyrimidine]",,,,,,,,,,,,,,,,16.4%,43.4%,"PurTP, 15.0 μM ([13]; 15.0 μM): 39833 cpm/10^6 cells; PyrTP, 15.0 μM ([13]; 15.0 μM): 13454 cpm/10^6 cells; CAA (carbamyl aspartate), 15.0 μM ([13]; 15.0 μM, zero = undetectable): 0 cpm/10^6 cells; activity at 15 µM ([13]; read-out: PurTP, % control, 15.0 μM): 66.9%; activity at 15 µM ([13]; read-out: PydTP, % control, 15.0 μM): 62%"

# From patent US5041542A, “Substituted pyrimido[5,4-d]pyrimidine nucleosides” (Nucleic Acid Research Institute, priority 1988, dated 1991)
